Values of other authors, collected in US7947467B2, “Methods for monitoring pathological conditions in a subject” (Common Sense Ltd., priority 2001, dated 2011).

conditions: not given

Row | Compound | aqueous pH transition range
1 | O=C1c2ccccc2C(=O)c2c1ccc(O)c2O [Alizarin] | 5.5-6.8
2 | Cc1cc(C2(c3cc(C)c(O)c(Br)c3)OS(=O)(=O)c3ccccc32)cc(Br)c1O [Bromcresol Purple] | 5.2-6.8
3 | Cc1cc(C2(c3cc(C)c(O)c(Br)c3C)OS(=O)(=O)c3ccccc32)c(C)c(Br)c1O [Bromoxylenol Blue] | 6.0-7.6
4 | Cc1c(C2(c3cc(C(C)C)c(O)c(Br)c3C)OS(=O)(=O)c3ccccc32)cc(C(C)C)c(O)c1Br [Bromthymol Blue] | 6.0-7.6
5 | O=S1(=O)OC(c2ccc(O)c(Cl)c2)(c2ccc(O)c(Cl)c2)c2ccccc21 [Chlorophenol Red] | 5.2-8.8
6 | Cc1cc(C2(c3ccc(O)c(C)c3)OS(=O)(=O)c3ccccc32)ccc1O [Cresol Red] | 7.2-8.8
7 | Cc1cc2nc3ccc(N(C)C)cc3nc2cc1N.Cl [Neutral Red] | 6.8-8.0
8 | Cc1cc(O)c(C(C)C)cc1C1(c2cc(C(C)C)c(O)cc2C)OS(=O)(=O)c2ccccc21 [Thymol Blue] | 8.0-9.2
9 | Cc1cc(C2(c3cc(C)c(O)cc3C)OS(=O)(=O)c3ccccc32)c(C)cc1O [Xylenol Blue] | 8.0-9.6
10 | Cc1cc(O)ccc1C1(c2ccc(O)cc2C)OS(=O)(=O)c2ccccc21 [m-Cresol purple] | 7.4-9.0
11 | Nitrazine Yellow | 6.0-7.2

conditions: in aqueous solution

Row | Compound | pKa
12 | Nitrazine Yellow | 6.6
